Data: EP3262942A1, “SELENODIARYLS FOR USE AS MICROBICIDE OR AS MEDICINE” (Evonik Degussa GmbH, priority 2016, dated 2018)

Assays:
P. infestans = test: microbe, parasite or virus in culture; type: cell-based, Phytophthora infestans; details: for inhibition of growth at 5 µg/mL / inhibition of growth at 10 µg/mL / inhibition of growth at 25 µg/mL / inhibition of growth at 50 µg/mL: Phytophthora infestans, 24 h, read-out: Aktivität gegenüber P. infestans
M. grisea CM = test: microbe, parasite or virus in culture; type: cell-based, Magnaporthe grisea; details: Pyricularia grisea, 24 h, read-out: Aktivität gegenüber M. grisea CM
Botrytis cinerea = test: microbe, parasite or virus in culture; type: cell-based; details: for inhibition of growth at 5 µg/mL / inhibition of growth at 10 µg/mL / inhibition of growth at 25 µg/mL / inhibition of growth at 50 µg/mL: Botrytis cinerea, 24 h, read-out: Aktivität gegenüber B. cinerea
Penicillium notatum = test: Growth test in microtiter plates, HA medium, 24 h, visual evaluation; type: cell-based; parameters: key: +: kein Wachstum im Vergleich zur Wachstumskontrolle; -: Wachstum wie Wachstumskontrolle
Paecilomyces variotii = test: as above; type: cell-based; parameters: key: +: kein Wachstum im Vergleich zur Wachstumskontrolle; -: Wachstum wie Wachstumskontrolle
Candida albicans = test: as above; type: cell-based; parameters: key: +: kein Wachstum im Vergleich zur Wachstumskontrolle; -: Wachstum wie Wachstumskontrolle
M. grisea H2O = test: microbe, parasite or virus in culture; type: cell-based, Magnaporthe grisea; details: Pyricularia grisea, H2O, 24 h, read-out: Aktivität gegenüber M. grisea H2O
Mucor miehei = test: Growth test in microtiter plates, HA medium, 24 h, visual evaluation; type: cell-based; parameters: key to Aktivität gegenüber M. miehei: +: kein Wachstum im Vergleich zur Wachstumskontrolle; -: Wachstum wie Wachstumskontrolle
Setaria italica = test: Crop plant growth test, seeds on filter discs, 4 days, visual evaluation; type: in vivo
Procedure: (§1) Testsubstanzen und Kontrollen werden auf Filterrondellen in Mikrotiterplatten (48 well) vorgelegt und das verwendete Lösungsmittel (DMSO) über Lyophilisation entfernt. Anschließend werden ca. 12 Samen pro Vertiefung (Setaria italical Lepidium sativum) zugeben, mit 200 µl sterilem Leitungswasser pro Vertiefung versetzt, mit einem Deckel versehen und in einer feuchten Kammer für 4 Tage im Pflanzenbrutschrank inkubiert (16h-Licht-8h-Dunkel-Rhythmus). Die Auswertung des Tests erfolgt optisch (+: mind. 75 % Wachstumshemmung im Vergleich zur Kontrolle, -: weniger als 75 % Wachstumshemmung im Vergleich zur Kontrolle.

Lepidium sativum = test: as above; type: in vivo
Procedure: as §1

Structure (SMILES) | inhibition of growth at 5 µg/mL (P. infestans) | inhibition of growth at 10 µg/mL (P. infestans) | inhibition of growth at 25 µg/mL (P. infestans) | inhibition of growth at 50 µg/mL (P. infestans) | inhibition of growth at 5 µg/mL (M. grisea CM) | inhibition of growth at 10 µg/mL (M. grisea CM) | inhibition of growth at 25 µg/mL (M. grisea CM) | inhibition of growth at 50 µg/mL (M. grisea CM) | inhibition of growth at 5 µg/mL (Botrytis cinerea) | inhibition of growth at 10 µg/mL (Botrytis cinerea) | inhibition of growth at 25 µg/mL (Botrytis cinerea) | inhibition of growth at 50 µg/mL (Botrytis cinerea) | Aktivität gegenüber P. notatum (Penicillium notatum; 10µg/mL) | Aktivität gegenüber P. notatum (Penicillium notatum; 50µg/mL) | Aktivität gegenüber P. variotii (Paecilomyces variotii; 10µg/mL) | Aktivität gegenüber P. variotii (Paecilomyces variotii; 50µg/mL) | Aktivität gegenüber C. albicans (Candida albicans; 10µg/mL) | Aktivität gegenüber C. albicans (Candida albicans; 50µg/mL) | inhibition of growth at 5 µg/mL (M. grisea H2O) | inhibition of growth at 10 µg/mL (M. grisea H2O) | also measured
Cc1cc(C)c(O)c([Se]c2c(C)c(C)cc(C)c2O)c1C [Verbindung 17, Bis(2-hydroxy-3,5,6-trimethylphenyl)selen] | 0 to 25% | 25 to 50% | 25 to 50% | 25 to 50% | 0 to 25% | 0 to 25% | 50 to 75% | 50 to 75% | 0 to 25% | 0 to 25% | 0 to 25% | 0 to 25% | - | - | - | - | - | - | 0 to 25% | 0 to 25% | inhibition of growth at 25 µg/mL (M. grisea H2O): 0 to 25%; inhibition of growth at 50 µg/mL (M. grisea H2O): 0 to 25%; Aktivität gegenüber M. miehei (Mucor miehei; 10µg/mL): -; Aktivität gegenüber M. miehei (Mucor miehei; 50µg/mL): -; Aktivität gegenüber Nutzpflanzen: S. italica (Setaria italica; 10µg/R): - (weniger als 75 % Wachstumshemmung im Vergleich zur Kontrolle); Aktivität gegenüber Nutzpflanzen: S. italica (Setaria italica; 20µg/R): - (weniger als 75 % Wachstumshemmung im Vergleich zur Kontrolle); Aktivität gegenüber Nutzpflanzen: S. italica (Setaria italica; 50µg/R): + (mind. 75 % Wachstumshemmung im Vergleich zur Kontrolle); Aktivität gegenüber Nutzpflanzen: L. sativum (Lepidium sativum; 10µg/R): - (weniger als 75 % Wachstumshemmung im Vergleich zur Kontrolle); Aktivität gegenüber Nutzpflanzen: L. sativum (Lepidium sativum; 20µg/R): - (weniger als 75 % Wachstumshemmung im Vergleich zur Kontrolle); Aktivität gegenüber Nutzpflanzen: L. sativum (Lepidium sativum; 50µg/R): - (weniger als 75 % Wachstumshemmung im Vergleich zur Kontrolle)
Cc1c(Cl)cc(C(C)C)c(O)c1[Se]c1c(C)c(Cl)cc(C(C)C)c1O [Verbindung 21, Bis(3-chlor-6-hydroxy-5-isopropyl-2-methylphenyl)selen] | 0 to 25% | 0 to 25% | 0 to 25% | 0 to 25% | 50 to 75% | > 75% | > 75% | > 75% | 0 to 25% | 0 to 25% | 0 to 25% | 0 to 25% | - | - | - | - | - | - | 25 to 50% | > 75% | Wirksamkeit gegenüber P. infestans (P. infestans): keine Wirkung; inhibition of growth at 25 µg/mL (M. grisea H2O): > 75%; inhibition of growth at 50 µg/mL (M. grisea H2O): > 75%; Aktivität gegenüber M. miehei (Mucor miehei; 10µg/mL): -; Aktivität gegenüber M. miehei (Mucor miehei; 50µg/mL): -; Aktivität gegenüber Nutzpflanzen: S. italica (Setaria italica; 10µg/R): - (weniger als 75 % Wachstumshemmung im Vergleich zur Kontrolle); Aktivität gegenüber Nutzpflanzen: S. italica (Setaria italica; 20µg/R): - (weniger als 75 % Wachstumshemmung im Vergleich zur Kontrolle); Aktivität gegenüber Nutzpflanzen: S. italica (Setaria italica; 50µg/R): - (weniger als 75 % Wachstumshemmung im Vergleich zur Kontrolle); Aktivität gegenüber Nutzpflanzen: L. sativum (Lepidium sativum; 10µg/R): - (weniger als 75 % Wachstumshemmung im Vergleich zur Kontrolle); Aktivität gegenüber Nutzpflanzen: L. sativum (Lepidium sativum; 20µg/R): - (weniger als 75 % Wachstumshemmung im Vergleich zur Kontrolle); Aktivität gegenüber Nutzpflanzen: L. sativum (Lepidium sativum; 50µg/R): - (weniger als 75 % Wachstumshemmung im Vergleich zur Kontrolle)
Cc1cc(Cl)cc([Se]c2cc(Cl)cc(C)c2O)c1O [Verbindung 22, Bis(3-chlor-6-hydroxy-5-methylphenyl)selen] | 0 to 25% | > 75% | > 75% | > 75% | > 75% | > 75% | > 75% | > 75% | > 75% | > 75% | > 75% | > 75% | - | - | - | - | - | - | > 75% | > 75% | mikrobizide Wirksamkeit gegenüber B. cinerea (Botrytis cinerea): mikrobizide Wirksamkeit; inhibition of growth at 25 µg/mL (M. grisea H2O): > 75%; inhibition of growth at 50 µg/mL (M. grisea H2O): > 75%; Aktivität gegenüber M. miehei (Mucor miehei; 10µg/mL): -; Aktivität gegenüber M. miehei (Mucor miehei; 50µg/mL): -; Aktivität gegenüber Nutzpflanzen: S. italica (Setaria italica; 10µg/R): - (weniger als 75 % Wachstumshemmung im Vergleich zur Kontrolle); Aktivität gegenüber Nutzpflanzen: S. italica (Setaria italica; 20µg/R): - (weniger als 75 % Wachstumshemmung im Vergleich zur Kontrolle); Aktivität gegenüber Nutzpflanzen: S. italica (Setaria italica; 50µg/R): - (weniger als 75 % Wachstumshemmung im Vergleich zur Kontrolle); Aktivität gegenüber Nutzpflanzen: L. sativum (Lepidium sativum; 10µg/R): - (weniger als 75 % Wachstumshemmung im Vergleich zur Kontrolle); Aktivität gegenüber Nutzpflanzen: L. sativum (Lepidium sativum; 20µg/R): - (weniger als 75 % Wachstumshemmung im Vergleich zur Kontrolle); Aktivität gegenüber Nutzpflanzen: L. sativum (Lepidium sativum; 50µg/R): - (weniger als 75 % Wachstumshemmung im Vergleich zur Kontrolle)
Cc1cc(Br)c(O)c([Se]c2cc(C)cc(Br)c2O)c1 [Verbindung 23, Bis(3-brom-2-hydroxy-5-methylphenyl)selen] | 0 to 25% | 0 to 25% | 0 to 25% | 0 to 25% | > 75% | > 75% | > 75% | > 75% | 0 to 25% | 0 to 25% | 0 to 25% | 0 to 25% | - | - | - | - | - | - | 0 to 25% | 25 to 50% | Wirksamkeit gegenüber P. infestans (P. infestans): keine Wirkung; inhibition of growth at 25 µg/mL (M. grisea H2O): > 75%; inhibition of growth at 50 µg/mL (M. grisea H2O): > 75%; Aktivität gegenüber M. miehei (Mucor miehei; 10µg/mL): -; Aktivität gegenüber M. miehei (Mucor miehei; 50µg/mL): -; Aktivität gegenüber Nutzpflanzen: S. italica (Setaria italica; 10µg/R): - (weniger als 75 % Wachstumshemmung im Vergleich zur Kontrolle); Aktivität gegenüber Nutzpflanzen: S. italica (Setaria italica; 20µg/R): - (weniger als 75 % Wachstumshemmung im Vergleich zur Kontrolle); Aktivität gegenüber Nutzpflanzen: S. italica (Setaria italica; 50µg/R): - (weniger als 75 % Wachstumshemmung im Vergleich zur Kontrolle); Aktivität gegenüber Nutzpflanzen: L. sativum (Lepidium sativum; 10µg/R): - (weniger als 75 % Wachstumshemmung im Vergleich zur Kontrolle); Aktivität gegenüber Nutzpflanzen: L. sativum (Lepidium sativum; 20µg/R): - (weniger als 75 % Wachstumshemmung im Vergleich zur Kontrolle); Aktivität gegenüber Nutzpflanzen: L. sativum (Lepidium sativum; 50µg/R): - (weniger als 75 % Wachstumshemmung im Vergleich zur Kontrolle)
